{"source": "BindingDB's records for doi:10.7270/Q25Q4TJ1", "about": "(Burnham Center For Chemical Genomics, 2010)", "biological_target": "Intestinal-type alkaline phosphatase (Mus musculus, UniProt P24822)", "sequence (P24822 whole entry, looked up)": "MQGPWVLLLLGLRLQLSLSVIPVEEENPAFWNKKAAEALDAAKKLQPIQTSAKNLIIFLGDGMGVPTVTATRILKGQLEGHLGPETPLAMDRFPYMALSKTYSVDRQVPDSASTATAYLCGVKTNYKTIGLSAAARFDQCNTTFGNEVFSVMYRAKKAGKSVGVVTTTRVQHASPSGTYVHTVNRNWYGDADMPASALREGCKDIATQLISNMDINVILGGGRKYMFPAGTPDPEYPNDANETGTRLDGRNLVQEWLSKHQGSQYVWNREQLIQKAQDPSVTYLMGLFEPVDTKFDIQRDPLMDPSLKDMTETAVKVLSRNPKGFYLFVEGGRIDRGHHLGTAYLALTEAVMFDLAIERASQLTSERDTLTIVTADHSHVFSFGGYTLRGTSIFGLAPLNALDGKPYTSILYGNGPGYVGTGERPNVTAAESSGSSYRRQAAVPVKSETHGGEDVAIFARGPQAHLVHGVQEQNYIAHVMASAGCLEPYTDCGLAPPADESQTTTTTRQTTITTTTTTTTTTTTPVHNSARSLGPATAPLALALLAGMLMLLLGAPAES", "test": "PubChem AID 488874"}
{"smiles": "Cc1c(C(=O)NN=Cc2ccc(O)cc2O)[nH][nH]c1=O", "values": [{"measurement": "IC50", "result": "> 100", "unit": "µM"}]}
{"smiles": "CC(N=Nc1ccccc1[N+](=O)[O-])c1ccc([N+](=O)[O-])cc1", "note": "(stereo not given)", "values": [{"measurement": "IC50", "result": "> 100", "unit": "µM"}]}
{"smiles": "Cc1cc(Br)ccc1SCC(=O)OCC(=O)C(C#N)c1nc2ccccc2[nH]1", "note": "(stereo not given) [2-[(4-bromo-2-methylphenyl)thio]acetic acid [3-cyano-3-(1,3-dihydrobenzimidazol-2-ylidene)-2-oxopropyl] ester]", "values": [{"measurement": "IC50", "result": "> 100", "unit": "µM"}]}
{"smiles": "CCOC1=CC(=Cc2c(C)[nH]oc2=O)C=C(Br)C1=O", "note": "[4-[(Z)-(3-bromo-5-ethoxy-4-oxo-1-cyclohexa-2,5-dienylidene)methyl]-3-methyl-2H-isoxazol-5-one]", "values": [{"measurement": "IC50", "result": 33.1, "unit": "µM"}]}
{"smiles": "C=c1[nH]n(Cc2ccccc2)c(=O)c1=Cc1ccc(N(C)C)cc1", "note": "[(4Z)-4-[[4-(dimethylamino)phenyl]methylidene]-5-methyl-2-(phenylmethyl)-3-pyrazolone]", "values": [{"measurement": "IC50", "result": 35.1, "unit": "µM"}]}
{"smiles": "O=c1c2ccccc2nc(N=NCc2c(O)ccc3ccccc23)n1O", "note": "[SMR000145705]", "values": [{"measurement": "IC50", "result": 75.3, "unit": "µM"}]}
{"smiles": "O=C(Nn1c(O)csc1=S)C(=O)Nn1c(O)csc1=S", "note": "[SMR000349781]", "values": [{"measurement": "IC50", "result": 3.84, "unit": "µM"}]}
{"smiles": "O=Nc1[nH]c(=O)c(CC(=O)c2ccccc2)nc1NO", "note": "[SMR000539633]", "values": [{"measurement": "IC50", "result": 35.5, "unit": "µM"}]}
{"smiles": "CCOC(=O)c1c(C)[nH]c(C(=O)N/N=C/C2C=C([N+](=O)[O-])C=CC2=O)c1C", "note": "(stereo not given) [ethyl 2,4-dimethyl-5-[[[(E)-(3-nitro-6-oxocyclohexa-2,4-dien-1-ylidene)methyl]amino]carbamoyl]-1H-pyrrole-3-carboxylate]", "values": [{"measurement": "IC50", "result": "> 100", "unit": "µM"}]}
{"smiles": "O=C(O)[C@H]1O[C@@H](Oc2c(-c3ccc(O)c(O)c3)oc3cc(O)cc(=O)c-3c2O)[C@H](O)[C@@H](O)[C@@H]1O", "note": "[quercetin glucuronide]", "values": [{"measurement": "IC50", "result": 3.29, "unit": "µM"}]}
